Legend:
lipoamide = compound: NC(=O)CCCCC1CCSS1 [lipoamide]; assay: thermal stability z-score vs DMSO; higher = more thermally stabilized by treatment; conditions: HeLa, lipoamide concentration 100 µM
Procedure: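 Cellular thermal proteome profiling in HeLa cells. Cells were treated with 100 µM lipoamide for 1 h, with or without 1 mM arsenate for a further 1 h, then heated to ten temperatures (37-66.3 °C), and soluble protein was quantified by TMT mass spectrometry relative to 0.1% DMSO controls. The thermal stability score (sum of log2 fold changes minus the abundance score) was transformed to a z-score; mean of n = 3 experiments.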

potassium arsenate = compound: O=[As]([O-])(O)O.[K+] [potassium arsenate]; assay: as above; conditions: HeLa; arsenate concentration 1 mM
Procedure: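 Cellular thermal proteome profiling in HeLa cells treated with 1 mM arsenate for 1 h (DMSO pretreatment), heated to ten temperatures (37-66.3 °C). Soluble protein was quantified by TMT mass spectrometry relative to DMSO controls; the thermal stability score was transformed to a z-score; mean of n = 3 experiments.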

[1] = arsenate co-treatment: 1 mM arsenate 1 h
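Also: each temperature applied for 3 min, abundance score taken as mean log2 fold change at the two lowest temperatures, z-score obtained by mean subtraction and division by SD.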

Chain of UniProt Q9UHR5 (Q9UHR5 whole entry): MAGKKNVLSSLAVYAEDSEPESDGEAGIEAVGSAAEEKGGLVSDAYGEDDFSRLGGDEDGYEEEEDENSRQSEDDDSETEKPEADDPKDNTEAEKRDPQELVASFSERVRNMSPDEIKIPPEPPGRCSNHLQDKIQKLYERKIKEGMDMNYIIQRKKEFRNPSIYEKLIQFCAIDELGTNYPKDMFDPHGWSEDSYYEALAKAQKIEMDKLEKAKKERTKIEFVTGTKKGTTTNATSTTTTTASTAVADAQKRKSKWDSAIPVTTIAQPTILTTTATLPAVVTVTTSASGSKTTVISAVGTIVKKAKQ
Chain of UniProt Q96BY9 (Q96BY9 whole entry): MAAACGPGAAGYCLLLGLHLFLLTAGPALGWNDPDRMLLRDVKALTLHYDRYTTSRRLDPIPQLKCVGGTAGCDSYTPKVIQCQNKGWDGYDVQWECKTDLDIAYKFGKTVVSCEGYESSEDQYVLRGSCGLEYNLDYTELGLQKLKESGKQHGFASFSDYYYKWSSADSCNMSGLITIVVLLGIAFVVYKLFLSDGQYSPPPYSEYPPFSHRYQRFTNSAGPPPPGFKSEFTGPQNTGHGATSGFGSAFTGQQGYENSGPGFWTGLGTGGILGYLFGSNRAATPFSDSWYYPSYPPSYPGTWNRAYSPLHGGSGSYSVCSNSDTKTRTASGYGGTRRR
Chain of UniProt Q96ER3 (Q96ER3 whole entry): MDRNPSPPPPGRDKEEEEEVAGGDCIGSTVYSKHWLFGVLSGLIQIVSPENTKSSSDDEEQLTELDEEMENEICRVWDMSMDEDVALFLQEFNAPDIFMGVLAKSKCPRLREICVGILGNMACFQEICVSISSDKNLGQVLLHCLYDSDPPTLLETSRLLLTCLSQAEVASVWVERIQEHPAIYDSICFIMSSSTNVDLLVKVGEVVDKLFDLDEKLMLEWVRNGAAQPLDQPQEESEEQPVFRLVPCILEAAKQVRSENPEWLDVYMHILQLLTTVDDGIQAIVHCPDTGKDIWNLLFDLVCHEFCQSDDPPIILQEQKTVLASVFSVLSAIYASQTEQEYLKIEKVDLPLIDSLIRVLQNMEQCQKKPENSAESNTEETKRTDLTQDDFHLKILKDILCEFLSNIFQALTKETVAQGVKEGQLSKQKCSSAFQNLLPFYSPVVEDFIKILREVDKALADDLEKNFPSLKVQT
Chain of UniProt Q9NTJ5 (Q9NTJ5 whole entry): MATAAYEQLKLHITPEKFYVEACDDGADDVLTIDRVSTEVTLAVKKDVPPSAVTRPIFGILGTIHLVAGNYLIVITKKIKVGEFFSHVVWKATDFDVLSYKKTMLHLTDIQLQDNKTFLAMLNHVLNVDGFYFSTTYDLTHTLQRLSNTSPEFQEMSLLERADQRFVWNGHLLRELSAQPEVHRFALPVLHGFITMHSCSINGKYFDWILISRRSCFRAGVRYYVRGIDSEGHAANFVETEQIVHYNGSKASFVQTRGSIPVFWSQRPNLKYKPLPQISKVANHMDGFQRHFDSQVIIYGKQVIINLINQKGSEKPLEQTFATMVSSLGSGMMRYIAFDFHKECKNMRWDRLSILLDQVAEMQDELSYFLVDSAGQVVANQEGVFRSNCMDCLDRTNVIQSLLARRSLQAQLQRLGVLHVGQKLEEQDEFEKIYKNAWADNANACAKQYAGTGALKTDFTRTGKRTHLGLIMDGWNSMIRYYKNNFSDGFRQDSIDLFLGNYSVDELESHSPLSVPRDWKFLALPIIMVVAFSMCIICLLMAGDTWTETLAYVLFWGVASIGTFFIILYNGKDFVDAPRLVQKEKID
Chain of UniProt Q5K651 (Q5K651 whole entry): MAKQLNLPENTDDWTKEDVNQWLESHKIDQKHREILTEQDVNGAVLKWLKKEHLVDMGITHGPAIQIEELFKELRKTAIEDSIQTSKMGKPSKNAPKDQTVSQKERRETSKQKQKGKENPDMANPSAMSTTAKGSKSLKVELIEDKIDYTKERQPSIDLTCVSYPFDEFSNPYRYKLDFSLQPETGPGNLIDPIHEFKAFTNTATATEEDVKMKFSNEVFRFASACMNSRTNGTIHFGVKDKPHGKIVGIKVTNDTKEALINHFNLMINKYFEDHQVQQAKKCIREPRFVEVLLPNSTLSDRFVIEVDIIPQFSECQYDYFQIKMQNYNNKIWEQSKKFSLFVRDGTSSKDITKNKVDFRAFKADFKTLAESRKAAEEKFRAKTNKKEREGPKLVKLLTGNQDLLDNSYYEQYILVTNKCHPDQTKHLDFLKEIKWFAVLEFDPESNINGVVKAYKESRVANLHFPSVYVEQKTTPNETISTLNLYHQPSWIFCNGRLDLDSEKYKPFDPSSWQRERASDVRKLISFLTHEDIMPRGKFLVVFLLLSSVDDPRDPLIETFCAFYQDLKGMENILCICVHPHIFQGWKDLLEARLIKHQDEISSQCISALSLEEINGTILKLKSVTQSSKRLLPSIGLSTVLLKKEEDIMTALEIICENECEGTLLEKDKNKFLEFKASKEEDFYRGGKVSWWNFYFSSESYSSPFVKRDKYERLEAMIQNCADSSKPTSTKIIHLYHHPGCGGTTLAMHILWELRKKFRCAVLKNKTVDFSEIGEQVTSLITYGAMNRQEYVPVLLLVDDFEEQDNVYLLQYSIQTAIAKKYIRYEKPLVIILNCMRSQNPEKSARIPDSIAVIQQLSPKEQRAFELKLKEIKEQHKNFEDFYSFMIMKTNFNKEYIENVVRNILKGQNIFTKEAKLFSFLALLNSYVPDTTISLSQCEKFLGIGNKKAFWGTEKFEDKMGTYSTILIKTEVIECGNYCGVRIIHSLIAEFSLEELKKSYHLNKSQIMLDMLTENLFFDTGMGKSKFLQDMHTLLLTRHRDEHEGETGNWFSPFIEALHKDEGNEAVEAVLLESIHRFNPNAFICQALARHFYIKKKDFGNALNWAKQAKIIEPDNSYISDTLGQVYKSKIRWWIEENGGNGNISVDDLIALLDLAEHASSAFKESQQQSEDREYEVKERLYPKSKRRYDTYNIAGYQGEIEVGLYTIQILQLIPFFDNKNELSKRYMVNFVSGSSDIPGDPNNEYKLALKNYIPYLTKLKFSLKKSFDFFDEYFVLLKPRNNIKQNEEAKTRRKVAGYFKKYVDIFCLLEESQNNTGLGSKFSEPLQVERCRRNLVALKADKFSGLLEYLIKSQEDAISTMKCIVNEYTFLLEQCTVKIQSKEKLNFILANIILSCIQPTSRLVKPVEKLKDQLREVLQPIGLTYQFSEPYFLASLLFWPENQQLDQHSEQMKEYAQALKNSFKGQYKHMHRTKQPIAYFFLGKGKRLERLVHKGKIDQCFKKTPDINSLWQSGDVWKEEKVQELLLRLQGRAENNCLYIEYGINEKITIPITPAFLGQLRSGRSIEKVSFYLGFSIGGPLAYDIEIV
Chain of UniProt P31949 (P31949 whole entry): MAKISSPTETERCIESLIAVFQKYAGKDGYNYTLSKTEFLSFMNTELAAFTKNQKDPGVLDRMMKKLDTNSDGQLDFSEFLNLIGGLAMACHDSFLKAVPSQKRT
Chain of UniProt Q9Y6B6 (Q9Y6B6 whole entry): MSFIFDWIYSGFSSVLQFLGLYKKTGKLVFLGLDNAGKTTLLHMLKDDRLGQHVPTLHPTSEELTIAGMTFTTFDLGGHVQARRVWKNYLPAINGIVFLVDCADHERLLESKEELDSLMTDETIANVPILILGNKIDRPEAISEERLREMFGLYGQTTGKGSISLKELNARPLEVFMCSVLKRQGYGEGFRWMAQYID
Chain of UniProt P49591 (P49591 whole entry, looked up): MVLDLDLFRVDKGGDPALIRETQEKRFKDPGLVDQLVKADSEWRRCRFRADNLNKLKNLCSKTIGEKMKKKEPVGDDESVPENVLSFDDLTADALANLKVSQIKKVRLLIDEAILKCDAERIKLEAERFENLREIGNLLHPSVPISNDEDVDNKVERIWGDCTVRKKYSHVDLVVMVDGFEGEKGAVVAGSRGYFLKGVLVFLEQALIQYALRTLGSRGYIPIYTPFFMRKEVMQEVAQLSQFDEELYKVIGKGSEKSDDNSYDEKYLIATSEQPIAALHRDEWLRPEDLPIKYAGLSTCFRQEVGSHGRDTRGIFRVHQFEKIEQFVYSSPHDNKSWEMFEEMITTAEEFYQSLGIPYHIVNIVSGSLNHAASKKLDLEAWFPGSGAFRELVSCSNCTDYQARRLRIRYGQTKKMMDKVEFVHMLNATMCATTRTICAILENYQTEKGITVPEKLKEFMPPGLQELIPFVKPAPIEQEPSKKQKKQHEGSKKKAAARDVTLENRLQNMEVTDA
Chain of UniProt O00422 (O00422 whole entry): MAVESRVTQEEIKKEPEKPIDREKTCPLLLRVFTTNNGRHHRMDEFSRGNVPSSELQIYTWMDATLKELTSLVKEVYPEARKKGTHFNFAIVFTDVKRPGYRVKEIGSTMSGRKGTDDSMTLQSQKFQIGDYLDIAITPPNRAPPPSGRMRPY
Chain of UniProt P25815 (P25815 whole entry, looked up): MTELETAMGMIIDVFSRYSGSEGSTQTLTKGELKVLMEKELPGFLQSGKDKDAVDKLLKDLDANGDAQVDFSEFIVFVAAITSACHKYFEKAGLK
Chain of UniProt Q9Y3A5 (Q9Y3A5 whole entry): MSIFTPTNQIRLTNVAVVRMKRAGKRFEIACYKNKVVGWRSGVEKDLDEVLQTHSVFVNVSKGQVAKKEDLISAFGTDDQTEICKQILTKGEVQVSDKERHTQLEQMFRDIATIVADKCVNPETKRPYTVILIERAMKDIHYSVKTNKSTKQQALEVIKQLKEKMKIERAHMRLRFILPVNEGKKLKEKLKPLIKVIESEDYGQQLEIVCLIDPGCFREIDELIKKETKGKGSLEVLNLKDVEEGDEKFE
Chain of UniProt Q96F10 (Q96F10 whole entry): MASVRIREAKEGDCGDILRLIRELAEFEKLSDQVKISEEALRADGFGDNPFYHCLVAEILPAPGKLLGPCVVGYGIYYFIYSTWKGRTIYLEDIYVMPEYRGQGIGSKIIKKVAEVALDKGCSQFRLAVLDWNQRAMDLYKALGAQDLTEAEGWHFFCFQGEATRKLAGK
Chain of UniProt P60903 (P60903 whole entry): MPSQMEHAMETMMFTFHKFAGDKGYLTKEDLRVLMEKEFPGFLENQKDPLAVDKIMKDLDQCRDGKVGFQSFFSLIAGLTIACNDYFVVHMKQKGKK

| Target | thermal stability z-score (lipoamide; [1]) | thermal stability z-score (lipoamide; arsenate co-treatment: none) | thermal stability z-score (potassium arsenate) |
| --- | --- | --- | --- |
| RXRA (UniProt P19793) | 0.08 | 0.208 | -0.255 |
| RXRB (UniProt P28702) | 0.117 | 0.096 | -0.458 |
| RYBP (UniProt Q8N488) | -0.607 | -0.174 | -0.269 |
| S100A4 (UniProt P26447) | -0.414 | -0.145 | -1.43 |
| S100A6 (UniProt P06703) | 1.78 | 0.967 | 1.15 |
| S100A10 (UniProt P60903) | 1.65 | 1.54 | 0.372 |
| S100A11 (UniProt P31949) | 1.19 | 1.12 | 0.639 |
| S100A13 (UniProt Q99584) | 0.758 | 1.06 | 0.67 |
| S100A16 (UniProt Q96FQ6) | 1.33 | 1.29 | 0.517 |
| S100P (UniProt P25815) | 0.367 | -0.088 | 0.0845 |
| SAAL1 (UniProt Q96ER3) | 0.357 | -0.345 | 0.336 |
| SAC3D1 (UniProt A6NKF1) | -1.55 | -1.63 | -1.27 |
| SACM1L (UniProt Q9NTJ5) | -0.145 | -0.499 | 0.448 |
| SACS (UniProt Q9NZJ4) | -0.17 | -0.0653 | 0.0609 |
| SAE1 (UniProt Q9UBE0) | -0.694 | -0.826 | -0.458 |
| SAFB2 (UniProt Q14151) | 1.41 | 0.112 | -0.545 |
| SAFB (UniProt Q15424) | 2.61 | 0.651 | 0.0324 |
| SAMD4B (UniProt Q5PRF9) | 0.14 | 0.116 | -0.143 |

| Target | thermal stability z-score (lipoamide; [1]) | thermal stability z-score (lipoamide; arsenate co-treatment: none) | thermal stability z-score (potassium arsenate) |
| --- | --- | --- | --- |
| SAMD9 (UniProt Q5K651) | -0.0476 | -0.0624 | -0.13 |
| SAMHD1 (UniProt Q9Y3Z3) | -0.0165 | 0.3 | 0.738 |
| SAMM50 (UniProt Q9Y512) | 0.182 | 0.601 | 1.08 |
| SAP18 (UniProt O00422) | 0.465 | 0.0358 | 0.519 |
| SAP30BP (UniProt Q9UHR5) | 0.884 | 0.612 | 1.03 |
| SAP130 (UniProt Q9H0E3) | -0.208 | -0.267 | -0.246 |
| SAR1A (UniProt Q9NR31) | 0.174 | 0.266 | 0.248 |
| SAR1B (UniProt Q9Y6B6) | 0.0537 | 0.376 | 0.0901 |
| SARAF (UniProt Q96BY9) | -0.355 | -0.0205 | 0.00539 |
| SARS2 (UniProt Q9NP81) | -0.781 | -0.828 | -0.442 |
| SARS (UniProt P49591) | 1.63 | 1.23 | 2.1 |
| SART1 (UniProt O43290) | 0.898 | 0.374 | -2.05 |
| SART3 (UniProt Q15020) | -0.326 | 0.203 | -1.04 |
| SASS6 (UniProt Q6UVJ0) | -0.579 | -0.207 | -0.481 |
| SAT2 (UniProt Q96F10) | 0.538 | 0.492 | 0.614 |
| SBDS (UniProt Q9Y3A5) | 0.328 | 0.706 | 0.306 |
| SBF1 (UniProt O95248) | -0.316 | 0.227 | -0.338 |
| SBF2 (UniProt Q86WG5) | -0.149 | -0.0174 | -0.179 |

Source: the supplement of paper PMC12463676, “Small-molecule dissolution of stress granules by redox modulation benefits ALS models” (Nature Chemical Biology, 2025)
